In ChEMBL document CHEMBL1201862, “PubChem BioAssay data set” (2004):
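Cells were grown in 96-well plates and exposed to each compound for 48 hours at five concentrations; endpoints were interpolated linearly between bracketing concentrations, or set to the highest concentration if not reached. The concentration for 50% growth inhibition is given as GI50.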 The source made the active and inactive calls. Rule as the data show it: active = GI50 up to about 1.1 µM and inactive = higher. Starred links: 1 amine or outer side, 2 acyl side, 3 side chain; linkers in the order of their positions; H or OH if unused. Positions of bridges follow the written chain, without caps; N, C: chain ends. Non-standard residues stand in square brackets, D forms with d. Residues, ends and D or L forms follow the SMILES beside them. Chains are numbered I, II in the order given. Actinocin(1to9) = Cc1c2oc3c(C)ccc(C(=O)[*:2])c3nc-2c(C(=O)[*:1])c(N)c1=O; aThr = C[C@H](O)[C@H](N)C(=O)O; NMeV = CN[C@H](C(=O)O)C(C)C; Sar = CNCC(=O)O

Tests used:
Assay in all cases: NCI-60 cell line screen, 48 h
M19-MEL = system: M19-MEL
SNB-78 = system: SNB-78
LXFL 529 = system: LXFL 529
DMS-273 = system: DMS-273
XF498 = system: XF498
DLD-1 = system: DLD-1
KM-20L2 = system: KM-20L2
HOP-18 = system: HOP-18
RXF 631 = system: RXF 631

Compound | GI50 (M19-MEL) | GI50 (SNB-78) | GI50 (LXFL 529) | GI50 (DMS-273) | GI50 (XF498) | GI50 (DLD-1) | GI50 (KM-20L2) | GI50 (HOP-18) | GI50 (RXF 631)
c1ccc(OCc2nnc3n2N=C(c2ccccc2)CS3)cc1 | > 100 µM (inactive) | > 100 µM (inactive) | > 100 µM (inactive) | > 100 µM (inactive) | > 100 µM (inactive) | > 100 µM (inactive) |  |  | 
Nc1ncnc2c(C3OC(CO)C(O)C3O)scc12 (stereo not given) | 0.369 µM (active) | 4.31 µM (inactive) | 0.129 µM (active) | 0.00377 µM (active) | 0.0282 µM (active) | 0.00212 µM (active) | 0.00516 µM (active) | < 0.01 µM (active) | 
CCOC(=O)c1nc2ccc([N+](=O)[O-])cc2c2c1CCO2 | > 100 µM (inactive) | > 100 µM (inactive) | > 100 µM (inactive) | > 100 µM (inactive) | > 100 µM (inactive) | > 100 µM (inactive) | > 100 µM (inactive) | 71 µM (inactive) | > 100 µM (inactive)
O=C(Nc1cc(Cl)ccc1Cl)C(=O)C(c1cnc2ccccc2n1)[N+](=O)[O-] (stereo not given) | > 100 µM (inactive) | > 100 µM (inactive) | > 100 µM (inactive) |  | > 100 µM (inactive) | > 100 µM (inactive) | > 100 µM (inactive) | > 100 µM (inactive) | > 100 µM (inactive)
COc1ccc(-c2nc(N)n(C)c2SSc2c(-c3ccc(OC)cc3)nc(N)n2C)cc1 | 2.29 µM (inactive) |  | 1.67 µM (inactive) | 3.88 µM (inactive) | 2.13 µM (inactive) | 4.3 µM (inactive) | 12.9 µM (inactive) | 5.57 µM (inactive) | 
CC1=CC(=O)N2[C@H](OC[C@@H]2C(C)C)O1 | > 100 µM (inactive) |  | > 100 µM (inactive) |  | > 100 µM (inactive) | > 100 µM (inactive) | > 100 µM (inactive) | > 100 µM (inactive) | > 100 µM (inactive)
Cc1ccc(N2C(=O)/C(=C/c3ccc(N(CCC#N)CCC#N)cc3)N=C2COc2ccc(Cl)cc2Cl)cc1 |  | > 100 µM (inactive) | > 100 µM (inactive) |  | > 100 µM (inactive) | > 100 µM (inactive) | > 100 µM (inactive) | 33.8 µM (inactive) | > 100 µM (inactive)
N#C/N=C(\N)NCCO | 40.3 µM (inactive) | > 100 µM (inactive) | > 100 µM (inactive) | > 100 µM (inactive) | > 100 µM (inactive) | > 100 µM (inactive) | > 100 µM (inactive) | > 100 µM (inactive) | > 100 µM (inactive)
O=C1CCC(=O)C(C(=O)CCC(=O)Nc2ccc(Cl)cc2)C1 (stereo not given) |  | > 100 µM (inactive) | > 100 µM (inactive) | > 100 µM (inactive) | > 100 µM (inactive) | > 100 µM (inactive) | > 100 µM (inactive) | > 100 µM (inactive) | > 100 µM (inactive)
C/N=c1\ss/c(=N\C(=S)N(C)C)n1C1CCCCC1 | > 31.6 µM (inactive) | > 31.6 µM (inactive) | > 31.6 µM (inactive) | > 31.6 µM (inactive) | > 31.6 µM (inactive) | > 100 µM (inactive) | > 31.6 µM (inactive) | > 31.6 µM (inactive) | > 100 µM (inactive)
Oc1cc(Cl)ncn1 | > 100 µM (inactive) | > 100 µM (inactive) | > 100 µM (inactive) | > 100 µM (inactive) |  | > 100 µM (inactive) | > 100 µM (inactive) | > 100 µM (inactive) | > 100 µM (inactive)
Cc1c(C(=O)CC(=O)C(=O)NC2C3CC4CC(C3)CC2C4)[n+]([O-])c2ccccc2[n+]1[O-] (stereo not given) | 90.2 µM (inactive) | > 100 µM (inactive) | > 100 µM (inactive) | > 100 µM (inactive) | 93.5 µM (inactive) |  | > 100 µM (inactive) | 24.4 µM (inactive) | > 100 µM (inactive)
CCOC(=O)c1c(C)c2c(n1C)CCc1c[nH]nc1-2 | > 100 µM (inactive) | > 100 µM (inactive) |  | > 100 µM (inactive) | > 100 µM (inactive) | > 100 µM (inactive) | > 100 µM (inactive) | > 100 µM (inactive) | 
CCOC(=O)c1cnc2sc3ccc4ccccc4c3n2c1=O | > 100 µM (inactive) | > 100 µM (inactive) | 55.2 µM (inactive) | 95.5 µM (inactive) |  | > 100 µM (inactive) | 72.1 µM (inactive) | > 100 µM (inactive) | 64.6 µM (inactive)
COc1ccc(Oc2ccccc2N)cc1 | 50.2 µM (inactive) | > 100 µM (inactive) | 10.4 µM (inactive) | 29.5 µM (inactive) |  | 30 µM (inactive) | 27.6 µM (inactive) | > 100 µM (inactive) | > 100 µM (inactive)
NNC(=O)/C(NC(=O)c1ccccc1)=C(\N)c1ccc(Cl)cc1 | > 100 µM (inactive) | > 100 µM (inactive) | > 100 µM (inactive) | > 100 µM (inactive) |  | > 100 µM (inactive) | > 100 µM (inactive) | > 100 µM (inactive) | 
CC1=C2[C@H](c3ccccc3)C3C=CC2(c2ccccc23)N(C(=O)C(c2ccccc2)c2ccccc2)C1=O (stereo not given in full) | > 100 µM (inactive) |  | > 100 µM (inactive) | > 100 µM (inactive) | > 100 µM (inactive) | > 100 µM (inactive) | > 100 µM (inactive) | > 100 µM (inactive) | 
c1ccc(C2=NOC3(c4ccccc4)SC4CCCCC4CN23)cc1 (stereo not given) | 30.5 µM (inactive) | 34 µM (inactive) | 13.2 µM (inactive) | 32.6 µM (inactive) | 52.4 µM (inactive) | 40.5 µM (inactive) | 39.5 µM (inactive) | 26.9 µM (inactive) | 
COc1cc2c(cc1OC)C(C(c1ccccc1)c1ccccc1)N(C)CC2 (stereo not given) | > 91.6 µM (inactive) | > 100 µM (inactive) |  | 77.3 µM (inactive) | 53 µM (inactive) | > 78.9 µM (inactive) | 32.6 µM (inactive) | > 100 µM (inactive) | 
COc1ccc2c(c1)[n+]([O-])c(-c1ccc(C)cc1)c(N)[n+]2[O-] | 51.1 µM (inactive) | 70.5 µM (inactive) | 59.6 µM (inactive) | 37.7 µM (inactive) |  | > 100 µM (inactive) | 36.1 µM (inactive) | > 100 µM (inactive) | 
CC(C)(c1ccc(OC#N)cc1)c1ccc(OC#N)cc1 | > 82.6 µM (inactive) | > 100 µM (inactive) | > 100 µM (inactive) |  |  | > 56.8 µM (inactive) | > 74.6 µM (inactive) | > 100 µM (inactive) | > 100 µM (inactive)
N#CC1(C#N)C(c2ccc(C3C(C#N)(C#N)C3(C#N)C#N)cc2)C1(C#N)C#N | > 100 µM (inactive) |  | > 100 µM (inactive) | > 100 µM (inactive) |  | > 100 µM (inactive) | > 100 µM (inactive) | > 100 µM (inactive) | 
O=C1C=C2SC3C[C@@]24CC1[N+]1=c2c4c(c(O)c4c2=C(C=N4)CC1)N3 | 1.9 µM (inactive) | 2.61 µM (inactive) |  | 2.12 µM (inactive) | 1.91 µM (inactive) | 2.07 µM (inactive) | 1.92 µM (inactive) | 6.49 µM (inactive) | 
Cc1c2oc3c(C)ccc(C(=O)N[C@@H]4C(=O)N[C@H](C(C)C)C(=O)N5CCC[C@H]5C(=O)N(C)CC(=O)N(C)[C@@H](C(C)C)C(=O)O[C@H]4C)c3nc-2c(C(=O)N[C@@H]2C(=O)N[C@H](C(C)C)C(=O)N3CCC[C@H]3C(=O)N(C)CC(=O)N(C)[C@@H](C(C)C)C(=O)O[C@H]2C)c(N)c1=O (I: [aThr][dV]P[Sar][NMeV] / II: [aThr][dV]P[Sar][NMeV]; ester I:1-I:C, II:1-II:C; linker I:N-II:N via Actinocin(1to9)) | 0.00155 µM (active) | 0.0027 µM (active) |  | 0.00031 µM (active) | 0.000897 µM (active) | 0.00384 µM (active) | 0.00292 µM (active) | 0.00611 µM (active) | 
